Results from patent publication US11358952B2, “Substituted 4-aminoisoindoline-1,3-dione compounds, compositions thereof, and methods of treatment therewith” (Celgene Corporation, priority 2018, dated 2022).

test system: SU-DHL-4 cell line; assay: SU-DHL-4 cell proliferation assay (Cell Titer-Glo viability); type: cell-based; details: Homo sapiens; cell viability IC50 activity level, DLBCL cell line SU-DHL-4, 120 hours post-treatment; read-out: SU-DHL-4 Act
Method in brief: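 Viability read by ATP luminescence (Cell Titer-Glo) at the start and after 120 h of growth at 37°C in 5% CO2. DLBCL cells were seeded at 500 per well with compound across 0.5 nM–10 μM in 20 points, 0.1% DMSO. A four-parameter sigmoidal fit gave IC50 as 50% of DMSO control.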

Row | IC50 | Structure (SMILES)
1 | < 200 nM | Cc1cc(CNc2cccc3c2C(=O)N(C2CCC(=O)NC2=O)C3=O)ccc1CN1CCC2(CCOCC2)CC1 (centres unmarked) [Cpd 236, 4-(4-(3-oxa-9-azaspiro[5.5]undecan-9-ylmethyl)-3-methylbenzylamino)-2-(2,6-dioxopiperidin-3-yl)isoindoline-1,3-dione]
2 | < 200 nM | CC1(C)COCCN1C1CN(Cc2ccc(CNc3cccc4c3C(=O)N(C3CCC(=O)NC3=O)C4=O)c(F)c2)C1 (centres unmarked) [Cpd 237, 4-(4-((3-(3,3-dimethylmorpholino)azetidin-1-yl)methyl)-2-fluorobenzylamino)-2-(2,6-dioxopiperidin-3-yl)isoindoline-1,3-dione]
3 | < 200 nM | Cc1cc(CNc2cccc3c2C(=O)N(C2CCC(=O)NC2=O)C3=O)ccc1CN1CC(N2CCOCC2(C)C)C1 (centres unmarked) [Cpd 238, 4-(4-((3-(3,3-dimethylmorpholino)azetidin-1-yl)methyl)-3-methylbenzylamino)-2-(2,6-dioxopiperidin-3-yl)isoindoline-1,3-dione]
4 | 501 to 750 nM | CC1(C)COCCN1C1CN(Cc2ccc(CNc3cccc4c3C(=O)N(C3CCC(=O)NC3=O)C4=O)cc2)C1 (centres unmarked) [Cpd 239, 4-(4-((3-(3,3-dimethylmorpholino)azetidin-1-yl)methyl)benzylamino)-2-(2,6-dioxopiperidin-3-yl)isoindoline-1,3-dione]
5 | 200 to 500 nM | Cc1cc(CNc2cccc3c2C(=O)N(C2CCC(=O)NC2=O)C3=O)ccc1CN1CC(N2[C@H](C)COC[C@@H]2C)C1 (stereo partly drawn) [Cpd 240, 4-(4-((3-((3S,5R)-3,5-dimethylmorpholino)azetidin-1-yl)methyl)-3-methylbenzylamino)-2-(2,6-dioxopiperidin-3-yl)isoindolinne-1,3-dione]
6 | < 200 nM | O=C1CCC(N2C(=O)c3cccc(NCc4ccc(CN5CC6(CCOC6)C5)cc4F)c3C2=O)C(=O)N1 (centres unmarked) [Cpd 241, 4-(4-(6-oxa-2-azaspiro[3.4]octan-2-ylmethyl)-2-fluorobenzylamino)-2-(2,6-dioxopiperidin-3-yl)isoindoline-1,3-dione]
7 | 200 to 500 nM | O=C1CCC(N2C(=O)c3cccc(NCc4ccc(CN5CCCOCC5)cc4F)c3C2=O)C(=O)N1 (centres unmarked) [Cpd 242, 4-(4-((1,4-oxazepan-4-yl)methyl)-2-fluorobenzylamino)-2-(2,6-dioxopiperidin-3-yl)isoindoline-1,3-dione]
8 | < 200 nM | Cc1cc(CNc2cccc3c2C(=O)N(C2CCC(=O)NC2=O)C3=O)ccc1CN1CC2(CCOC2)C1 (centres unmarked) [Cpd 243, 4-(4-(6-oxa-2-azaspiro[3.4]octan-2-ylmethyl)-3-methylbenzylamino)-2-(2,6-dioxopiperidin-3-yl)isoindoine-1,3-dione]
9 | 501 to 750 nM | Cc1cc(CNc2cccc3c2C(=O)N(C2CCC(=O)NC2=O)C3=O)ccc1CN1CCCOCC1 (centres unmarked) [Cpd 244, 4-(4-((1,4-oxazepan-4-yl)methyl)-3-methylbenzylamino)-2-(2,6-dioxopiperidin-3-yl)isoindoline-1,3-dione]
10 | < 200 nM | CC1(C)CN(C2CN(Cc3ccc(CNc4cccc5c4C(=O)N(C4CCC(=O)NC4=O)C5=O)c(F)c3)C2)CCO1 (centres unmarked) [Cpd 245, 4-(4-((3-(2,2-dimethylmorpholino)azetidin-1-yl)methyl)-2-fluorobenzylamino)-2-(2,6-dioxopiperidin-3-yl)isoindoline-1,3-dione]
11 | < 200 nM | C[C@@H]1COC[C@H](C)N1C1CN(Cc2ccc(CNc3cccc4c3C(=O)N(C3CCC(=O)NC3=O)C4=O)c(F)c2)C1 (stereo partly drawn) [Cpd 249, 4-(4-((3-((3S,5R)-3,5-dimethylmorpholino)azetidin-1-yl)methyl)-2-fluorobenzylamino)-2-(2,6-dioxopiperidin-3-yl)isoindoline-1,3-dione]

Row | Structure (SMILES) | IC50
12 | O=C1CCC(N2C(=O)c3cccc(NCc4ccc(CN5CC(N6C7CCC6COC7)C5)cc4F)c3C2=O)C(=O)N1 (centres unmarked) [Cpd 246, 4-(4-((3-(3-oxa-8-azabicyclo[3.2.1]octan-8-yl)azetidin-1-yl)methyl)-2-fluorobenzylamino)-2-(2,6-dioxopiperidin-3-yl)isoindoline-1,3-dione] | < 200 nM
13 | Cc1cc(CNc2cccc3c2C(=O)N(C2CCC(=O)NC2=O)C3=O)ccc1CN1CC(N2C3CCC2COC3)C1 (centres unmarked) [Cpd 247, 4-(4-((3-(3-oxa-8-azabicyclo[3.2.1]octan-8-yl)azetidin-1-yl)methyl)-3-methylbenzylamino)-2-(2,6-dioxopiperidin-3-yl)isoindoline-1,3-dione] | < 200 nM
14 | O=C1CCC(N2C(=O)c3cccc(NCc4ccc(CN5CC(N6C7CCC6COC7)C5)cc4)c3C2=O)C(=O)N1 (centres unmarked) [Cpd 248, 4-(4-((3-(3-oxa-8-azabicyclo[3.2.1]octan-8-yl)azetidin-1-yl)methyl)benzylamino)-2-(2,6-dioxopiperidin-3-yl)isoindoline-1,3-dione] | < 200 nM
